From patent US20080200682A1, “Process of Producing Bleach Boosters” (BASF Aktiengesellschaft, priority 2005, published 2008)
Structures can show the parent of a compound that is named as a salt.

Columns and labels:
Assay type in all cases: biochemical
[1] = molecular target: T1, Termamyl (amylase enzyme) (Bacillus licheniformis, UniProt P06278)
T1 construct: purchased Novozymes, Denmark

[2] = tested on: Amylase enzymes: Termamyl, Natalase, and Duramyl; test: Organic Catalyst/Enzyme Compatibility Test, average ECV of the three enzymes; details: ECV=(ECVter+ECVdur+ECVnat)/3; [Peracetic Acid]=5.0 ppm; [organic catalyst]=0.5 ppm
[3] = tested on: Natalase (amylase enzyme); test: Organic Catalyst/Enzyme Compatibility Test (alpha amylase activity assay), Natalase; details: (Ac/Ab)x100 for Natalase; [Peracetic Acid]=5.0 ppm; [organic catalyst]=0.5 ppm; detergent solution, 40° C.
Duramyl (amylase enzyme) = test: Organic Catalyst/Enzyme Compatibility Test (alpha amylase activity assay), Duramyl; details: (Ac/Ab)x100 for Duramyl; [Peracetic Acid]=5.0 ppm; [organic catalyst]=0.5 ppm; detergent solution, 40° C.

T1 sequence (P06278 30-512): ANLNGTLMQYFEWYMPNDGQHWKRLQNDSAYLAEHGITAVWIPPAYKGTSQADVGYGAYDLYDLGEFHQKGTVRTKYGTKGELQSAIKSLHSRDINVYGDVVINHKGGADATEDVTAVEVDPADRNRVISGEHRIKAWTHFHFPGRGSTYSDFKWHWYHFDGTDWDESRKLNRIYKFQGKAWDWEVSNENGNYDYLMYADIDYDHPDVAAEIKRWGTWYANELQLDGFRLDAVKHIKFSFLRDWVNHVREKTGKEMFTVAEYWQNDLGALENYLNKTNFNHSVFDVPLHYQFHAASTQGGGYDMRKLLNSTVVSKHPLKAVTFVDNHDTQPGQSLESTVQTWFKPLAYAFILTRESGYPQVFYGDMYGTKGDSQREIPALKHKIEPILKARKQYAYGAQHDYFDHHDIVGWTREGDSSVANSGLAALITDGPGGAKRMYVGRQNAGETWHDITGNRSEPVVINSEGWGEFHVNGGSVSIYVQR

Compound	Enzyme Compatibility Values ECVter [1]	Enzyme Compatibility Values ECV [2]	Enzyme Compatibility Values ECVnat [3]	Enzyme Compatibility Values ECVdur (Duramyl (amylase enzyme))
Sulfuric acid mono-[2-(3,4-dihydro-isoquinolin-2-yl)-1-(iso-tridecyloxymethyl)-ethyl]ester, internal salt [Entry 8]	99	100	101	100
CCCCCC(CCC)COCC(C[N+]1=Cc2ccccc2CC1)OS(=O)(=O)[O-] (stereo not drawn) [Entry 3, Sulfuric acid mono-[2-(3,4-dihydro-isoquinolin-2-yl)-1-(2-propylheptyloxymethyl)-ethyl]ester, internal salt]	98	99	99	101
CCCCCCC(CCCC)COCC(C[N+]1=Cc2ccccc2CC1)OS(=O)(=O)[O-] (stereo not drawn) [Entry 4, Sulfuric acid mono-[2-(3,4-dihydro-isoquinolin-2-yl)-1-(2-butyl-octyloxymethyl)-ethyl]ester, internal salt]	101	101	102	101
CCCCC(CC)COCC(C[N+]1=Cc2ccccc2CC1)OS(=O)(=O)[O-] (stereo not drawn) [Entry 2, reference compound]	54	67	57	90
Sulfuric acid mono-[2-(3,4-dihydro-isoquinolin-2-yl)-1-(iso-decyloxymethyl)-ethyl]ester, internal salt [Entry 7]	98	97	96	97
Sulfuric acid mono-[2-(3,4-dihydro-isoquinolin-2-yl)-1-(iso-nonyloxymethyl)-ethyl]ester, internal salt [Entry 6]	86	90	88	96
